For data set [1], the system named is Saccharomyces cerevisiae MP1. Put plainly: Recombination / mutation experiments with yeast. It is filed as cell-based. Particulars: for anti-recombinogenic effects in Saccharomyces cerevisiae MP1: FIGS. 11 and 12.
Data set [2] relates to human tumor cell strain K562-WT. The settings on record: FIG. 8.
A further data set has as its system MDR gene in F46-WT cells. As to the kind of experiment: Northern Blot analysis of RNA with the MDR gene as probe. The data set is classed as cell-based, mouse. Particulars: BVDU+adriamycin treatment, FIG. 10. The source says: Expression of the MDR genes in the tumor cell strain F4-6WT of the mouse.
Data set [3] concerns tumor cell strain F46-WT of the mouse. The protocol: The formation of resistance is based on the amplification of the MDR gene. This is indicated with the aid of the Northern Blotting Technique, a method for indicating RNA molecules, i.e., the transcription of a gene, using the MDR gene as a probe (FIG. 10).
The tumor cell strain F4-6-WT of the mouse (WT=wild type=sensitive to cytostatic treatment=no amplification of the MDR gene) is treated over several weeks with staged increases in concentration of adriamycin. […] The formation of resistance is based on the amplification of the MDR gene. This is indicated with the aid of the Northern Technique, a method for indicating RNA molecules, i.e., the transcription of a gene, using the MDR gene as a probe (FIG. 15). […] The levels of β-actin MRNA are likewise analyzed as comparison. β-actin is used as an internal control for the RNA quantity.
In parallel experiments, adriamycin is administered with 1 μg/ml of a respective 5′ substituted nucleoside.

The test system of data set [4] is SV40-DNA amplification in SV40 transformed embryonic CO631 hamster cells. Put plainly: SV40-DNA gene amplification system in SV40-transformed hamster cells. The data set is classed as cell-based, Chinese Hamster. The settings on record: for effect on SV40 gene amplification: model substance given alone, FIGS. 1 to 3. The source says:
To investigate the amplification phenomena, a hamster cell strain is used which contains a virus (simian virus 40) integrated in the genome. It is known for this cell strain that an addition of genotoxic substances, but also various “non-genotoxic” carcinogens and tumor inducers, leads to amplification of SV40-DNA in the hamster genome. The method is based on the fact that marked SV40-DNA with hamster cell-DNA containing SV40-DNA in an amplified number, serving as a probe, is hybridized. The quantity of bound probe gives an insight into the degree of amplification of the integrated virus-DNA.
In order to determine the degree of amplification, the albumin-gene-DNA is measured simultaneously with the SV40-DNA. The albumin-gene, as opposed to SV40-DNA, is not amplified in the cell. Accordingly the value of the relative SV40-DNA content results from the quotient of the signal of the DNA probe hybridized with SV40-DNA to the signal of the DNA probe hybridized with albumin gene from the same SV40 transformed embryonic CO631 hamster cells.
The effect of the above named model substances alone or in combination with a carcinogen is tested in the gene amplification system.

Each structure is given as a SMILES string.

From patent US6589941B1 (priority 1995, dated 2003) come the findings set out here.

Turning to `Nc1nc(=O)n([C@H]2C[C@H](O)[C@@H](CO)O2)cc1I` [5-iodo-2′-deoxycytidine], in data set [1], the “anti-recombinogenic effects in Saccharomyces cerevisiae MP1” value is listed as “anti-recombinogenic effects”.
Still for that read-out and setting: to `O=c1[nH]c(=O)n([C@H]2C[C@H](O)[C@@H](CO)O2)cc1I` [5-iodo-2′-deoxyuridine] belongs “anti-recombinogenic effects”; to `O=c1[nH]c(=O)n([C@H]2C[C@H](O)[C@@H](CO)S2)cc1/C=C/Br` [(E)-5(2-bromovinyl-2′-deoxy-4′-thiouridine], “anti-recombinogenic effects”; to `O=c1[nH]c(=O)n([C@@H]2O[C@H](CO)[C@@H](O)[C@@H]2O)cc1/C=C/Br` [(E)-5-(2-bromovinyl)-1-β-D-arabinofuranosyl-uracil], “anti-recombinogenic effects”.
Consider `O=c1[nH]c(=O)n([C@H]2C[C@H](O)[C@@H](CO)O2)cc1/C=C/Br` [BVDU, (E)-5-(2-bromovinyl-)2′-deoxyuridine], for which the “formation of resistance to adriamycin” value in data set [2] (0.5 or 1 μg/ml BVDU given together with adriamycin, K562-WT, 6 to 8 weeks) is reported as “prevents the formation of resistance to adriamycin”; in data set [3] (0.5 or 1 μg/ml BVDU given together with adriamycin, F46-WT, 6 to 8 weeks, FIG. 9), “prevents the formation of resistance to adriamycin”. In addition, the “concentration from which BVDU acts in a toxic manner” value in data set [2] (human tumor cells) is “about 10 μg/ml”; in data set [3] (mouse cells, FIG. 9), “about 8 μg/ml”. For the same compound, the “amplification of the MDR gene compared with adriamycin treatment alone” value with MDR gene in F46-WT cells is given as “considerably weaker amplification of the MDR gene”. Besides, in data set [1], the “anti-recombinogenic effects in Saccharomyces cerevisiae MP1” value is listed as “anti-recombinogenic effects”. Further, in data set [1] (with and without S9-mix, FIG. 4), the “effect on mutation in yeast” value is recorded as “co-mutagenic”. In data set [1] (with and without liver microsomes (S9-mix), more visible and at lower concentration with S9-mix, FIG. 4), the “effect on recombination in yeast” value is “anti-recombinogenic”. Further, the “effect on spontaneous degree of amplification” value in data set [4] (BVDU alone, repeat experiment, FIG. 6) is “slightly to lessen the spontaneous degree of amplification”. In addition, the “effect on AMP-induced gene amplification” value in data set [4] (with S9-mix, lower dose range than without S9-mix, FIG. 7) was “lowering of AMP-induced gene amplification”. Also, the “concentration at which inhibition of AMP-induced gene amplification starts” value in data set [4] (without S9-mix, FIG. 5) is listed as “about 0.05 μg/ml”. Also, in data set [4] (without S9-mix, dose dependent, FIG. 5), the “concentration leading to total inhibition of the AMP-induced gene amplification” value is 5 µg/mL.
On to `C1CN1c1nc(N2CC2)nc(N2CC2)n1` [TEM, Triethylenmelamin], for which, in data set [4], the “effect on SV40 gene amplification” value is listed as “increase the SV40 gene amplification”.
On to `CCCCCCCCCCCCCC(=O)O[C@@H]1[C@@H](C)[C@@]2(O)[C@@H](C=C(CO)C[C@]3(O)C(=O)C(C)=C[C@@H]23)[C@H]2C(C)(C)[C@]12OC(C)=O` [TPA, 12-0-tetradecanoyl-phorbol-13-acetate], for which the “effect on SV40 gene amplification” value in data set [4] is “increase the SV40 gene amplification”.
On the same count and under the same terms, to `CC(N)=O` [acetamide] belongs “increase the SV40 gene amplification”; to `CC(C)=O` [acetone], “no effect”.
Turning to `COc1cccc2c1C(=O)c1c(O)c3c(c(O)c1C2=O)C[C@@](O)(C(=O)CO)C[C@@H]3O[C@H]1C[C@H](N)[C@H](O)[C@H](C)O1` [adriamycin], the “sensitivity of cells after long term treatment with staged increase in concentration” value is “totally insensitive” in data set [2] (20 ng/ml adriamycin, K562-WT) and “totally insensitive” in data set [3] (20 ng/ml adriamycin, F46-WT, FIGS. 9, 13, 14). Further, in data set [2] (20 ng/ml adriamycin, treatment time 4 days, K562-WT), the “toxic effect on non-resistant cells” value is reported as “severely toxic effect”.
Consider `O=c1ccc2ccccc2o1` [coumarin], for which the “effect on SV40 gene amplification” value in data set [4] is given as “increase the SV40 gene amplification”.
Same read-out and setting: to `CN(C)C=O` [dimethylfornamide, dimethylformamide] belongs “no effect”; to `C=C(C)[C@@]12O[C@@]3(c4ccccc4)O[C@@H]1[C@@H]1[C@@H]4O[C@]4(CO)[C@@H](O)[C@]4(O)C(=O)C(C)=C[C@H]4[C@@]1(O3)[C@H](C)[C@H]2OC(=O)/C=C/C=C/c1ccccc1` [mezerein], “increase the SV40 gene amplification”.
With `C[C@]12CC[C@H]3[C@@H](CCC4=CC(=O)CC[C@@]43C)[C@@H]1CC[C@@H]2O` [testosterone], in data set [4] (with S9-mix, FIG. 3), the “effect on the amplifying effect of methotrexate (MTX)” value is given as “reduces the amplifying effect of methotrexate (MTX)”. Moreover, the “effect on the amplifying effect of amino-6-mercaptopurine (AMP)” value in data set [4] (without S9-mix, FIG. 3) is given as “increases the amplifying effect of amino-6-mercaptopurine (AMP)”.
As to `CC(=N)S` [thioacetamide], the “effect on SV40 gene amplification” value in data set [4] is “increase the SV40 gene amplification”.
